In US20100272642A1, “PET PROBE HAVING AN ALKOXY GROUP SUBSTITUTED BY FLUORINE AND HYDROXY GROUP” (TOHOKU UNIVERSITY, priority 2007, published 2010):
“Also recorded” adds a separate entry of the source.

Tests used:
[1] = target: T1, amyloid β protein (Homo sapiens, UniProt P05067); assay: Staining test on the brain section of patients with Alzheimer's disease; type: binding; conditions: 100 μM compound in 50% ethanol, 10 minutes, fluorescence microscope
T1 construct: tissue Choju Medical Institute in Fukushimura Hospital; host or cells: Paraffin-embedded post-mortem human brain sections (temporal lobe or hippocampus)
T1 sequence (P05067 672-713 limits assumed): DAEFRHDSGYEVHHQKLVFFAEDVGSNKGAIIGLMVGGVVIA
Source text: The procedure of […] of the compounds of the present invention on the brain section of patients with Alzheimer's disease is explained as follows.
(1) The brain samples from the temporal lobe or hippocampus of patients pathologically definitely diagnosed as having Alzheimer's disease and normal elderly individuals were used. The samples were obtained from Choju Medical Institute in Fukushimura Hospital, our collaborative research institute, and the consent for the use for research purpose was obtained from the patients' deceased family members (Fukushimura Hospital, Ethic Committee Approval No. 20).
(2) The brain tissue embedded in the paraffin was thinly sectioned into 6 or 8 μm in thickness, extended on the slide glass, and dried. The paraffined brain section was deparaffined by washing with xylene 10 minutes×2, 100% ethanol 5 minutes×2, 90% ethanol 5 minutes, and running water 10 minutes in this order.
(3) As the pretreatment of staining by the compound of the present invention, the treatment to remove autofluorescence by lipofuscin was conducted. […]
(4) From 100 μM of the compound solution of the present invention dissolved in 50% ethanol, about 150 μl was added dropwise, and was reacted for 10 minutes. After being soaked in the tap water 5 times, it was encapsulated with Flour Save Reagent (Calbiochem) and examined with a fluorescence microscope (Nikon, Eclipse 80i). […]

[2] = Evaluation of blood-brain barrier permeability and osseous accumulation of the [18F] labeled compound in mice; type: in vivo, mouse; conditions: for % ID/g or ml (mean ± standard deviation), Blood plasma / % ID/g or ml (mean ± standard deviation), Bone / % ID/g or ml (mean ± standard deviation), Brain: male ICR mice, tail vein administration; for % ID/g or ml (mean ± standard deviation), Bone: bone (femur); for osseous accumulation: mice, 2, 30, 60 minutes after administration, in words; for defluorination in vivo / wash-out from the brain: mice; for defluorination in vivo: suggested from osseous accumulation; for wash-out from the brain: compared with [18F]BF-227
Experimental: The physiological saline solution containing [^18F] BF-837 or [^18F] THK-853 was administered into the tail vein of the male ICR mice (6-7 weeks of age), and blood-brain barrier permeability and osseous accumulation of each labeled compound were evaluated based on accumulation of radioactive in the brain tissue and the bone tissue at 2, 30, 60 minutes after.
The radiochemical purity of the used physiological saline containing the labeled compound used was 95% or greater, and specific activity was 18.5 to 148 GBq/μmol, and 1.11-2.22 MBq of the labeled compound per mouse was administered. In the evaluation of radiation accumulation, the ratio of radiation per unit weight of the evaluation tissue against the whole radiation administered (% Injected Dose/g of tissue; % ID/g) was used as the index. For measurement of the radiation, the gamma counter (1480 WIZARD, PerkinElmer, Inc.) was used. The experimental procedure was as follows. The labeled compound was administered into the caudal vein and dislocation in the cervical spine of the mice was conducted under the ether anesthesia at 2, 30, and 60 minutes after, and after promptly harvesting the blood from the heart, the whole brain (including the cerebellum, brain stem) and the femur were removed.

CNc1ccc(-c2nc3ccc(OC(CO)CF)cc3s2)cc1 (stereo not shown) [THK-837]
binding to amyloid β protein in the brain section [1]: bound to amyloid β protein

CN(C)c1ncc(C=Cc2nc3ccc(OCCF)cc3o2)s1 [[^18F]BF-227, 2-[2-(2-dimethylaminothiazole-5-yl)ethenyl]-6-(2-fluoroethoxy)benzoxazole, reference compound]
% ID/g or ml (mean ± standard deviation), Blood plasma ([2]; 2 minutes after): 2.93 ± 0.08 % ID/g or ml
% ID/g or ml (mean ± standard deviation), Blood plasma ([2]; 30 minutes after): 2.14 ± 0.17 % ID/g or ml
% ID/g or ml (mean ± standard deviation), Blood plasma ([2]; 60 minutes after): 2.09 ± 0.15 % ID/g or ml
% ID/g or ml (mean ± standard deviation), Bone ([2]; 2 minutes after): 1.59 ± 0.27 % ID/g or ml
% ID/g or ml (mean ± standard deviation), Bone ([2]; 30 minutes after): 4.38 ± 1.24 % ID/g or ml
% ID/g or ml (mean ± standard deviation), Bone ([2]; 60 minutes after): 7.04 ± 0.75 % ID/g or ml
% ID/g or ml (mean ± standard deviation), Brain ([2]; 2 minutes after): 6.05 ± 0.45 % ID/g or ml
% ID/g or ml (mean ± standard deviation), Brain ([2]; 30 minutes after): 1.91 ± 0.05 % ID/g or ml
% ID/g or ml (mean ± standard deviation), Brain ([2]; 60 minutes after): 1.67 ± 0.14 % ID/g or ml
osseous accumulation [2]: time dependence marked accumulation was observed
defluorination in vivo [2]: easily subjected to defluorination

CNc1ccc(/C=C/c2ccc(OC(CO)CF)cc2)cc1 (stereo not shown) [THK-853]
binding to amyloid β protein in the brain section [1]: bound to amyloid β protein

CNc1ccc(/C=C/c2ccc(OC(CO)CF)cc2)cc1 (stereo not shown) [[^18F]THK-853]
% ID/g or ml (mean ± standard deviation), Blood plasma ([2]; 2 minutes after): 2.81 ± 0.37 % ID/g or ml
% ID/g or ml (mean ± standard deviation), Blood plasma ([2]; 30 minutes after): 2.11 ± 0.50 % ID/g or ml
% ID/g or ml (mean ± standard deviation), Blood plasma ([2]; 60 minutes after): 1.59 ± 0.12 % ID/g or ml
% ID/g or ml (mean ± standard deviation), Bone ([2]; 2 minutes after): 1.64 ± 0.19 % ID/g or ml
% ID/g or ml (mean ± standard deviation), Bone ([2]; 30 minutes after): 0.98 ± 0.20 % ID/g or ml
% ID/g or ml (mean ± standard deviation), Bone ([2]; 60 minutes after): 0.96 ± 0.04 % ID/g or ml
% ID/g or ml (mean ± standard deviation), Brain ([2]; 2 minutes after): 7.56 ± 0.87 % ID/g or ml
% ID/g or ml (mean ± standard deviation), Brain ([2]; 30 minutes after): 1.31 ± 014 % ID/g or ml
% ID/g or ml (mean ± standard deviation), Brain ([2]; 60 minutes after): 0.59 ± 0.04 % ID/g or ml
osseous accumulation [2]: not observed; also recorded: scarcely observed
wash-out from the brain [2]: clearly more excellent
defluorination in vivo [2]: not subjected to defluorination

CNc1ccc(-c2nc3ccc(OC(CO)CF)cc3s2)cc1 (stereo not shown) [[^18F]THK-837]
% ID/g or ml (mean ± standard deviation), Blood plasma ([2]; 2 minutes after): 3.30 ± 0.17 % ID/g or ml
% ID/g or ml (mean ± standard deviation), Blood plasma ([2]; 30 minutes after): 1.73 ± 0.26 % ID/g or ml
% ID/g or ml (mean ± standard deviation), Blood plasma ([2]; 60 minutes after): 1.35 ± 0.77 % ID/g or ml
% ID/g or ml (mean ± standard deviation), Bone ([2]; 2 minutes after): 1.80 ± 0.17 % ID/g or ml
% ID/g or ml (mean ± standard deviation), Bone ([2]; 30 minutes after): 1.27 ± 0.11 % ID/g or ml
% ID/g or ml (mean ± standard deviation), Bone ([2]; 60 minutes after): 1.64 ± 0.12 % ID/g or ml
% ID/g or ml (mean ± standard deviation), Brain ([2]; 2 minutes after): 6.54 ± 0.19 % ID/g or ml
% ID/g or ml (mean ± standard deviation), Brain ([2]; 30 minutes after): 0.94 ± 0.08 % ID/g or ml
% ID/g or ml (mean ± standard deviation), Brain ([2]; 60 minutes after): 0.43 ± 0.03 % ID/g or ml
osseous accumulation [2]: not observed; also recorded: scarcely observed
wash-out from the brain [2]: clearly more excellent
defluorination in vivo [2]: not subjected to defluorination
